From ChEMBL document CHEMBL1909046, “DrugMatrix in vitro pharmacology data”

Legend:
Cytochrome P450 3A4 = Cytochrome P450 3A4 (Homo sapiens, UniProt P08684); details: bti-tn-5b1-4; note: in other assays of this panel Not Active means under 50% inhibition at 10 µM
[1] = DRUGMATRIX: Interleukin IL-1 radioligand binding (ligand: [125I] interleukin 1beta); assay type: cell membranes, Membrane; details: nih3t3; Not Active = under 50% inhibition at 10 µM
[2] = target: T1, Alpha-1A adrenergic receptor (Rattus norvegicus, UniProt P43140); experiment: DRUGMATRIX: Alpha-1A adrenergic receptor radioligand binding (ligand: prazosin); assay type: cell membranes, Wistar, Submaxillary gland, Membrane; details: Not Active = under 50% inhibition at 10 µM
T1 sequence (P43140 whole entry): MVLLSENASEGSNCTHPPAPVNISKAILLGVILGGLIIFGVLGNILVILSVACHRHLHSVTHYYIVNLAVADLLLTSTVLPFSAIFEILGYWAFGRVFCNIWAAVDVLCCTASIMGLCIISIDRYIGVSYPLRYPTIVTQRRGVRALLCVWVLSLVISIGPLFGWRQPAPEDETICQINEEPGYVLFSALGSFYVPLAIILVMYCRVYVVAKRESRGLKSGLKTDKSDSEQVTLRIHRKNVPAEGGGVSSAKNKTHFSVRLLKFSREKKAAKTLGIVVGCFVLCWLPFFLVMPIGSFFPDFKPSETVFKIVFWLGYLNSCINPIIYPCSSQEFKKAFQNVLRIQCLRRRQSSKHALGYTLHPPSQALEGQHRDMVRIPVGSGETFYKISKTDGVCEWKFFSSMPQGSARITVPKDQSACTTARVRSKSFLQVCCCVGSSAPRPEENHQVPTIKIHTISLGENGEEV

Mu-type opioid receptor = Mu-type opioid receptor (Homo sapiens, UniProt P35372); experiment: DRUGMATRIX: Opiate mu (OP3, MOP) radioligand binding (ligand: [3H] Diprenorphine); assay type: cell membranes, CHO-K1, Membrane; details: cho-k1; Not Active = under 50% inhibition at 10 µM
Chain of Mu-type opioid receptor (P35372 whole entry): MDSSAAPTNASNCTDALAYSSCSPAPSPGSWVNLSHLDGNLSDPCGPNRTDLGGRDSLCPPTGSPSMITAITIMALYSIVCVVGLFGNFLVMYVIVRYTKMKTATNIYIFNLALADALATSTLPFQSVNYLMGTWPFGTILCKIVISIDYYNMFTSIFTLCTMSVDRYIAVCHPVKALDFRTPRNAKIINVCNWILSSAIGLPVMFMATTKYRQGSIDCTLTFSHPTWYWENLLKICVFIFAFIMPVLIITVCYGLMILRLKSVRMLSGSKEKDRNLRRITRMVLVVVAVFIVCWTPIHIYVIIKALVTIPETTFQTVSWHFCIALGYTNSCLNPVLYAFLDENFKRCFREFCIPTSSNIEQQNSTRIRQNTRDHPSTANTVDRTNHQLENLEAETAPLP

[3] = target: T2, Cysteinyl leukotriene receptor 1 (Homo sapiens, UniProt Q9Y271); assay type: cell membranes, CHO-K1, Membrane; details: cho-k1; note: in other assays of this panel Not Active means under 50% inhibition at 10 µM
T2 sequence (Q9Y271 whole entry): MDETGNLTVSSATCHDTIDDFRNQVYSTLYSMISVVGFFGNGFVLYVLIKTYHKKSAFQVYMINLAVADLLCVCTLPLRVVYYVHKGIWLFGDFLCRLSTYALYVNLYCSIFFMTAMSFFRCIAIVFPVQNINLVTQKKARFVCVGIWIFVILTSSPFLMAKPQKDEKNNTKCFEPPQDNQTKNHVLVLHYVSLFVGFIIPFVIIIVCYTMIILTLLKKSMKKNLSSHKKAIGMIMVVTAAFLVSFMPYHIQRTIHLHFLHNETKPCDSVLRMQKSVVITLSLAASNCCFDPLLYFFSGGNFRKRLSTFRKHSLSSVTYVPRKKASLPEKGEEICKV

[4] = target: Sodium-dependent dopamine transporter (Homo sapiens, UniProt Q01959); experiment: DRUGMATRIX: Dopamine Transporter radioligand binding (ligand: [125I] RTI-55); assay type: cell membranes, CHO-K1, Membrane; details: Not Active = under 50% inhibition at 10 µM
Chain of Sodium-dependent dopamine transporter (Q01959 whole entry): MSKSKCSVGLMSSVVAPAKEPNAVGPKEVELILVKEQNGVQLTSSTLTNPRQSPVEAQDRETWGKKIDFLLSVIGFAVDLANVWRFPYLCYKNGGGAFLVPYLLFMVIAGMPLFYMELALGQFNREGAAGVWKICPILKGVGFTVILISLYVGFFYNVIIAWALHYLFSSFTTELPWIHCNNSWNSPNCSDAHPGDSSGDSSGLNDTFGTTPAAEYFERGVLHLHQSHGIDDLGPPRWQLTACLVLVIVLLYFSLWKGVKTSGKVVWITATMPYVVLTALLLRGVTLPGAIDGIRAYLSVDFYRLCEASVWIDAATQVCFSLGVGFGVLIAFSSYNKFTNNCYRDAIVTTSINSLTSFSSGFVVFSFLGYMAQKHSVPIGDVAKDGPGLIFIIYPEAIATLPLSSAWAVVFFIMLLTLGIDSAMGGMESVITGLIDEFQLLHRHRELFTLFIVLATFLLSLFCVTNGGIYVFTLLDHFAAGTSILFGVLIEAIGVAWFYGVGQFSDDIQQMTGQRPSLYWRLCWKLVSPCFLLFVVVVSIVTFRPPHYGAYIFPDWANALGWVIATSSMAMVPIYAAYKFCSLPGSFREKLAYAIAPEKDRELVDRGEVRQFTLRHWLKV

[5] = DRUGMATRIX: Glutamate, NMDA, Agonism radioligand binding (ligand: [3H] CGP-39653); assay type: cell membranes, Rattus norvegicus, Wistar, Cerebral cortex, Membrane; details: Not Active = under 50% inhibition at 10 µM
[6] = target: T3, Angiotensin-converting enzyme (Oryctolagus cuniculus, UniProt P12822); experiment: biochemical; assay type: tissue-based, Lung;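 note: enzymatic inhibition of angiotensin-converting enzyme measured with FAPGG as the substrate; in other assays of this panel Not Active means under 50% inhibition at 10 µM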
T3 sequence (P12822 whole entry): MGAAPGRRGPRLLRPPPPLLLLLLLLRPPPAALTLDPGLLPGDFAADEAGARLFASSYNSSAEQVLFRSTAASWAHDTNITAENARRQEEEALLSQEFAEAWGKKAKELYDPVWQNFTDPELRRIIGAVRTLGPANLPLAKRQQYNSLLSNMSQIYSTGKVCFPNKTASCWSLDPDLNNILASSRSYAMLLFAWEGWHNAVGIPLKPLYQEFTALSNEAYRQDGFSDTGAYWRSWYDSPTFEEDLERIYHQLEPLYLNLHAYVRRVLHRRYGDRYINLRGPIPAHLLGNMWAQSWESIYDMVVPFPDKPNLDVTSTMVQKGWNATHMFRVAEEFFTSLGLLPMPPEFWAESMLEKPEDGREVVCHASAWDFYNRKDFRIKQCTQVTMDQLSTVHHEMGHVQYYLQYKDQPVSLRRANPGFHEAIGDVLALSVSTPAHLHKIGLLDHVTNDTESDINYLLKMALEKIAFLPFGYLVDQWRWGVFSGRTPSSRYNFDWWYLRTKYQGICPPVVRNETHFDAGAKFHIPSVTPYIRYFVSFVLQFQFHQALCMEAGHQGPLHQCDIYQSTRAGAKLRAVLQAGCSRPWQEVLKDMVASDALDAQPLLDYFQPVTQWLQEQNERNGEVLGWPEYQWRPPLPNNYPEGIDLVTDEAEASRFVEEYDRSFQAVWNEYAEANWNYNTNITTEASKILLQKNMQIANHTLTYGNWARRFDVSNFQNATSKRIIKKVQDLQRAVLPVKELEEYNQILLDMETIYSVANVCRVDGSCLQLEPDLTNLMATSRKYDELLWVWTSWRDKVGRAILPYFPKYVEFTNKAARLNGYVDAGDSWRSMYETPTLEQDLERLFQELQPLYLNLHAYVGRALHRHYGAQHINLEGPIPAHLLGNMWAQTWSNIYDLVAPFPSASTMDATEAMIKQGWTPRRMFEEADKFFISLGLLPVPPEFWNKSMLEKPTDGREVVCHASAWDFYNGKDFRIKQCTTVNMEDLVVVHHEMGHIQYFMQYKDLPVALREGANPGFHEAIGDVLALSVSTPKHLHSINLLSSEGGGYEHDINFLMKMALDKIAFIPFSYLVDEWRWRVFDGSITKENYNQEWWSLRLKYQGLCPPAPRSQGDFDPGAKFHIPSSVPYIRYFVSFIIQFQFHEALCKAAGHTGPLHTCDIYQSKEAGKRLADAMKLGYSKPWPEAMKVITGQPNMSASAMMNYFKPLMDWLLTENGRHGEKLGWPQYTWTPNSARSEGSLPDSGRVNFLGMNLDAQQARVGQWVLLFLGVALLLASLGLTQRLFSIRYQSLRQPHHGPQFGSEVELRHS

[7] = DRUGMATRIX: beta-Lactamase enzyme inhibition (substrate: Nitrocefin); design: species or system Bacillus cereus; details: Not Active = under 50% inhibition at 10 µM
[8] = DRUGMATRIX: Purinergic P2X radioligand binding (ligand: [3H] alpha, beta-Methylene-ATP); assay type: cell membranes, Oryctolagus cuniculus, New Zealand albino, Urinary bladder, Membrane; details: Not Active = under 50% inhibition at 10 µM
[9] = DRUGMATRIX: Glutamate, NMDA, Phencyclidine radioligand binding (ligand: [3H] TCP); assay type: cell membranes, Rattus norvegicus, Wistar, Cerebral cortex, Membrane; details: Not Active = under 50% inhibition at 10 µM
[10] = DRUGMATRIX: Potassium Channel [KATP] radioligand binding (ligand: [3H] Glyburide); assay type: cell membranes, Membrane; details: hit-t15; Not Active = under 50% inhibition at 10 µM
[11] = target: Voltage-gated inwardly rectifying potassium channel KCNH2 (Homo sapiens, UniProt Q12809); details: hek293; note: in other assays of this panel Not Active means under 50% inhibition at 10 µM
Chain of Voltage-gated inwardly rectifying potassium channel KCNH2 (Q12809 whole entry): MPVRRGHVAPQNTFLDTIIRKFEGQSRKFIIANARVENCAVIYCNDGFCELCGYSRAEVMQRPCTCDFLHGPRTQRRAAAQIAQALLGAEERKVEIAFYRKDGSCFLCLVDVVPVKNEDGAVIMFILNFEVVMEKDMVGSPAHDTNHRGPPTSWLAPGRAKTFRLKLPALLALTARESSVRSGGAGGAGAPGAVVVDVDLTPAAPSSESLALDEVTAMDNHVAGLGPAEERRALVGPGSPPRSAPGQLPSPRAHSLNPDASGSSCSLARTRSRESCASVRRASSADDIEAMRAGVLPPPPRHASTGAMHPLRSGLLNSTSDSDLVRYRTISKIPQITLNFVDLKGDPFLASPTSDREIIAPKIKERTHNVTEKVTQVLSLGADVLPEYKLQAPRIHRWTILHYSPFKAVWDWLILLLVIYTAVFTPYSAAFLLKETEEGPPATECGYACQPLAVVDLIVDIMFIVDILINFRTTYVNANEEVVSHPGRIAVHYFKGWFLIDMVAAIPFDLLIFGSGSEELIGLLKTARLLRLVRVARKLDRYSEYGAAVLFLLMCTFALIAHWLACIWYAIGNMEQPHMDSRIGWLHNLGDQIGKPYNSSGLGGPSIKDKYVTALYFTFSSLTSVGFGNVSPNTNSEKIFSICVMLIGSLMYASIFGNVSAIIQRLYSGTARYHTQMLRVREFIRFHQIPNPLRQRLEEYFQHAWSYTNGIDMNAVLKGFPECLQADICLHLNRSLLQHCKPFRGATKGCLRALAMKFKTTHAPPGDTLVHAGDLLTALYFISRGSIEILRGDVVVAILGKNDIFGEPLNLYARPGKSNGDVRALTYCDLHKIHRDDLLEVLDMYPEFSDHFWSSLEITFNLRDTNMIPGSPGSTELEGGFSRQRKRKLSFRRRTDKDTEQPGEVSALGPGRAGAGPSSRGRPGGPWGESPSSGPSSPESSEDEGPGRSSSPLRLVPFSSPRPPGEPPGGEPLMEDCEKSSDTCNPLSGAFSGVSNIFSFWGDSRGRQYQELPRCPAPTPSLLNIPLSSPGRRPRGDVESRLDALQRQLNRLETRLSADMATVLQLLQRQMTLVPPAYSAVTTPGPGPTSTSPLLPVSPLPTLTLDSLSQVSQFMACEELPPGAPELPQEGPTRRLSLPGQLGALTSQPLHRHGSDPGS

Chain of Cytochrome P450 3A4 (P08684 whole entry): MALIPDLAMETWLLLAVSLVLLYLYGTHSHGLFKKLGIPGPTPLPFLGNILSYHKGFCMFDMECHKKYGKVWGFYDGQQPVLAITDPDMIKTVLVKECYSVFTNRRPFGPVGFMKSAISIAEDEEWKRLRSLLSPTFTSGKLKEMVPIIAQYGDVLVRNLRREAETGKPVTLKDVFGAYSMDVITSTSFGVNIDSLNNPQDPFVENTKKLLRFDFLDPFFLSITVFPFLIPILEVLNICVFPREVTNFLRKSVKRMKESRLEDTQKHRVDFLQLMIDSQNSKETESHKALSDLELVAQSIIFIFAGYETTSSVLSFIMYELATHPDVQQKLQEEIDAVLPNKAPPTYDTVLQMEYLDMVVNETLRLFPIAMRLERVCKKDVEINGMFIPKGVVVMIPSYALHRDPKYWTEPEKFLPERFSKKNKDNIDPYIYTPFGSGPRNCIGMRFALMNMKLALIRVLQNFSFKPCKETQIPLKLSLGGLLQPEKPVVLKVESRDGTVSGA

| Compound | IC50 (Cytochrome P450 3A4) | Ki (Cytochrome P450 3A4) | IC50 [1] | Ki [1] | IC50 [2] | IC50 (Mu-type opioid receptor) | IC50 [3] | IC50 ([4]; cho-k1) | IC50 [5] | Ki [5] | IC50 [6] | IC50 [7] | Ki [7] | IC50 [8] | Ki [8] | IC50 [9] | Ki [9] | IC50 [10] | Ki [10] | IC50 [11] | also measured |
| --- | --- | --- | --- | --- | --- | --- | --- | --- | --- | --- | --- | --- | --- | --- | --- | --- | --- | --- | --- | --- | --- |
| CC1(C)S[C@@H]2[C@H](NC(=O)[C@H](N)c3ccc(O)cc3)C(=O)N2[C@H]1C(=O)O [AMOXICILLIN] | Not Active | Not Active | Not Active | Not Active | Not Active | Not Active | Not Active | Not Active | Not Active | Not Active | Not Active | Not Active | Not Active | Not Active | Not Active | Not Active | Not Active |  |  |  |  |
| Cc1c(-c2ccccc2)oc2c(C(=O)OCCN3CCCCC3)cccc2c1=O [FLAVOXATE] | Not Active | Not Active | Not Active | Not Active | Not Active | Not Active | Not Active | Not Active | Not Active | Not Active | Not Active | Not Active | Not Active | Not Active | Not Active | Not Active | Not Active | Not Active | Not Active |  |  |
| COC(=O)[C@H](c1ccccc1Cl)N1CCc2sccc2C1 [CLOPIDOGREL] |  |  | Not Active | Not Active | Not Active | Not Active | Not Active | Not Active | Not Active | Not Active | Not Active | Not Active | Not Active | Not Active | Not Active | Not Active | Not Active | Not Active | Not Active | Not Active | Ki [11]: Not Active |
| CN(C)CCCC1(c2ccc(F)cc2)OCc2cc(C#N)ccc21 (configuration not stated) [CITALOPRAM] | Not Active | Not Active | Not Active | Not Active |  | Not Active | Not Active | Not Active | Not Active | Not Active | Not Active | Not Active | Not Active | Not Active | Not Active | Not Active | Not Active | Not Active | Not Active |  | IC50 ([2]; read-out: IC50): 1760 nM; Ki ([2]; read-out: Ki): 711 nM |
| CC1COc2c(N3CCN(C)CC3)c(F)cc3c(=O)c(C(=O)O)cn1c23 (configuration not stated) [OFLOXACIN] |  |  | Not Active | Not Active | Not Active | Not Active | Not Active | Not Active | Not Active | Not Active | Not Active | Not Active | Not Active | Not Active | Not Active | Not Active | Not Active | Not Active | Not Active | Not Active | Ki [11]: Not Active |
| COc1ccc(CN(CCN(C)C)c2ccccn2)cc1 [PYRILAMINE] | Not Active | Not Active | Not Active | Not Active | Not Active | Not Active | Not Active |  | Not Active | Not Active | Not Active | Not Active | Not Active | Not Active | Not Active | Not Active | Not Active | Not Active | Not Active |  | IC50 ([4]; read-out: IC50): 879 nM; Ki ([4]; read-out: Ki): 699 nM |
| CCCCOC(=O)c1ccc(N)cc1 [BUTAMBEN] |  |  | Not Active | Not Active | Not Active | Not Active | Not Active | Not Active | Not Active | Not Active | Not Active | Not Active | Not Active | Not Active | Not Active | Not Active | Not Active | Not Active | Not Active | Not Active | Ki [11]: Not Active |
| NCC(=O)O [GLYCINE] |  |  | Not Active | Not Active | Not Active | Not Active | Not Active | Not Active | Not Active | Not Active | Not Active | Not Active | Not Active | Not Active | Not Active | Not Active | Not Active | Not Active | Not Active | Not Active | Ki [11]: Not Active |
